Reference: patent US20130253179A1, “Functionalization Processes and Reactants Used in Such Processes Using an Isatoic Anhydride or a Derivative Thereof, Biological Molecules Thus Treated and Kits” (priority 2010, published 2013)

Columns and labels:
[1] = test system: model oligoribonucleotide (ORN) with 27 bases; test: Functionalisation of a model ORN with 27 bases: functionalisation rate and regiospecificity by HPLC/LC-MS after nuclease P1/alkaline phosphatase hydrolysis; assay type: biochemical; details: for Fr (corrected functionalisation rate): ORN 8 nmol; for Fr (corrected functionalisation rate) / External/internal regiospecificity (uncorrected ratio of areas acylated mononucleosides / acylated dinucleotides): compound 30 mM, 1 h at 65° C., 250 mM TEAAc pH 7, 25% DMSO
From the text: For this purpose, a fixed quantity of ORN is reacted with an isatoic anhydride derivative conjugated to a molecule of interest (Cy3 IA Me (13)), under various temperature conditions, duration conditions, reaction medium conditions, etc. HPLC monitoring of the reaction at 260 nm makes it possible to detect the disappearance of the peak corresponding to the initial ORN and the appearance of peaks corresponding to acylated ORN. These products have a greater retention time and have an absorption spectrum corresponding to both that of ORN and that of the fluorescent label.
However, for greater precision on the functionalisation site and to precisely evaluate the functionalisation rate (Fr), the ORN population (labelled and unlabelled) is separated from the excess label by precipitation with acetone/lithium perchlorate or by gel permeation (NAP 5™, GE Health Care. Then the ORNs thus obtained are submitted to hydrolysis with the nuclease P1 (Aldrich, Saint Louis, USA) and with the alkaline phosphatase (Aldrich, Saint Louis, USA), in order to hydrolyse the phosphate diester bonds of ORN.
The ORN functionalisation rate (Fr) is evaluated by measuring: • the area corresponding to the terminal mononucleoside adducts (functionalised at 2′ and at 3′) and the area corresponding to the acylated dinucleosides (functionalised internally on 2′OH) • compared to the area of the peaks corresponding to the four ribonucleosides.
The internal/external regiospecificity of the acylation is evaluated by measuring the relative proportion of the areas corresponding to the: • end mono-nucleotides acylated at 2′ and at 3′ • and di-nucleotides acylated internally on 2′OH • which are easily detectable by HPLC.
The mixture is incubated for 60 minutes at 65° C. in an oven on a rack which is temperature-balanced in advance. An HPLC injection (conditions 3) makes it possible to monitor a formation of a certain quantity of acylated ORN as described in FIG. 6. To eliminate the salts and the excess label, the mixture is then purified on Sephadex NAP 5 gel (GE Health Care, Uppsala, Sweden)) and/or triple precipitation in 1.2 mL of a 180 mM Acetone/LiClO4 75/25 mixture. To finish, the pellet is dried with acetone and is evaporated with the centrifugal evaporator (RCT 60, Jouan, St Herblain, France). The residue is then taken up in 33 μL of a H2O/DMSO 85/15 solution and an HPLC injection (conditions 3) is performed in order to verify the proper elimination of the label. There is added to the mixture 2 μL of nuclease P1 (ref.: N8630 Sigma-Aldrich, St Louis, USA) in 1 U/μl solution in its buffer: 20 mM sodium acetate pH 5.5; 1 mM ZnCl2; 50 mM NaCl and 1 μL of 7 u/μl alkaline phosphatase in water (Ref. P7923-2KU Sigma-Aldrich, St Louis, USA). The medium is left at ambient temperature for 4 to 6 hours. It is then injected into HPLC (conditions 3) in order to verify the total hydrolysis of the ORN and in order to analyse the nature of the fragments obtained in accordance with what was described above and as described in FIG. 6.
The functionalisation rate is evaluated with UV at 260 nm by integration of the clusters corresponding to the acylated dinucleotides and to the acylated nucleosides) relative to the clusters corresponding to the four ribonucleosides. The ratio of the population of acylated dinucleotides to the population of acylated nucleosides is evaluated in the same way in order to evaluate the percentage of functionalisation on the 3′ terminal end.
The functionalisation rate values, presented within the framework of this invention, take into account the correction factor which must be applied according to the molar extinction coefficient at 260 nm of each of the nucleosides and according to whether they are nucleosides or dinucleotides. […]

ODN with 53 bases = test: RNA vs DNA chemoselectivity: functionalisation of an ODN with 53 bases; assay type: biochemical; details: compound 30 mM, DMSO/TEAAc buffer 25/75 (250 mM pH 7), 1 h at 65° C.
Protocol: After precipitation with acetone and hydrolysis with nuclease P1 and alkaline phosphatase, the hydrolysed fragments are analysed by LC-MS, as described in example 3. An example of the chromatograms monitoring the reaction of ODN or ORN with compound 13 is shown in FIG. 9, in which graphs A, B and C respectively represent ORN, ORN functionalised with compound 13 and precipitated, and ORN functionalised with 13, precipitated and hydrolysed. Graphs D, E and F represent the same thing, but with ODN.

[2] = FIG. 6 graph D, share of functionalised adducts

| SMILES | acylated dinucleotides (peak 1) [1, 2] [%] | nucleosides acylated at 2′ or at 3′ (peaks 2 and 3) [1, 2] [%] | Fr (corrected functionalisation rate) [1] [%] | Fr (corrected functionalisation rate) ([1]; listed as 13) [%] | Fr (corrected functionalisation rate) ([1]; listed as Cy3 IA ME (13)) [%] | corrected functionalisation rate ([1]; compound 15 mM, protocol of example 3) [%] | External/internal regiospecificity (uncorrected ratio of areas acylated mononucleosides / acylated dinucleotides) [1] | corrected functionalisation rate of the ODN (ODN with 53 bases) [%] |
| --- | --- | --- | --- | --- | --- | --- | --- | --- |
| CCN1/C(=C\C=C\C2=[N+](CCCCCC(=O)Nc3ccc4c(c3)c(=O)oc(=O)n4C)c3ccc(S(=O)(=O)[O-])cc3C2(C)C)C(C)(C)c2cc(S(=O)(=O)[O-])ccc21.[K+] [Cy3 IA Me 13, 1-methyl 5-Cy3-isatoic anhydride] | 42 | 58 | 4.5 | 4.5 | 4.2 | 2.6 | 58/42 | 0.1 |
| Cn1c(=O)oc(=O)c2cc(NC(=O)CCSSCCNC(=O)CCOCCOCCOCCOCCNC(=O)CCCCC3SCC4NC(=O)NC43)ccc21 (centres unmarked) [5Biot PEG4 SS IA Me 24] | – | – | 2.8 | – | – | – | 62/38 | 0.1 |
